Measured values as given in patent publication US20260200928A1, “THERAPEUTIC COMPOUNDS” (Sanofi, priority 2022, published 2026).
pIC50: −log10 of the molar value.

Biological target: T1, human IL-17A (Homo sapiens, UniProt Q16552)
T1 construct: purchased R&D Systems 7955-IL/CF
T1 sequence (Q16552 24-155): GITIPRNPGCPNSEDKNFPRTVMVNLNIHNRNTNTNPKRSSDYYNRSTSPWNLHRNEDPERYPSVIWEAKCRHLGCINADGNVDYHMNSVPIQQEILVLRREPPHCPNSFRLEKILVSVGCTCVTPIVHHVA
Assay: IL-17A AlphaLISA competition assay (block of IL-17A binding to its receptor IL-17RA)
Details: mean IC50 (n≥2), block of IL-17A binding to IL-17RA
Procedure, shortened: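 Human recombinant IL-17A (7.5 nM stock) pre-incubated 30 min at RT with compound, then IL-17RA/Fc (5 nM stock) added for 90 min; AlphaLISA read with anti-Fc acceptor beads, biotinylated anti-IL-17A antibody (5 nM) and streptavidin donor beads (3 h, dark). IC50 from 4-parameter logistic fit, normalised to DMSO and 4 μM reference inhibitor; n≥2.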

| pIC50 | SMILES |
| --- | --- |
| 7.17 | COC[C@H](c1ccnc(NC(=O)[C@@H](NC(=O)c2conc2C)C2CCC(F)(F)CC2)c1)N1C[C@@H](C(F)(F)F)NC1=O [Example 194, N-((S)-1-(4,4-difluorocyclohexyl)-2-((4-((S)-2-methoxy-1-((S)-2-oxo-4-(trifluoromethyl)imidazolidin-1-yl)ethyl)pyridin-2-yl)amino)-2-oxoethyl)-3-methylisoxazole-4-carboxamide] |
| 5.35 | COC[C@H](c1ccnc(NC(=O)C(NC(=O)c2nonc2C2CC2)C2CCC(C)(F)CC2)c1)N1C[C@@H](C(F)(F)F)NC1=O (single isomer, unassigned) [Example 296] |
| 7.89 | CCc1nocc1C(=O)N[C@H](C(=O)Nc1cc(C(COC)N2C[C@@H](C(F)(F)F)NC2=O)ccn1)[C@H]1CC[C@H](C)CC1 (single isomer, unassigned) [Example 125] |
| 6.21 | Cc1nonc1C(=O)NC(C(=O)Nc1cc(CN2CC(C(F)(F)F)NC2=O)ccn1)C1CCC(F)CC1 [Example 291, N-((S)-1-((1r,4S)-4-fluorocyclohexyl)-2-oxo-2-((4-(((S)-2-oxo-4-(trifluoromethyl)imidazolidin-1-yl)methyl)pyridin-2-yl)amino)ethyl)-4-methyl-1,2,5-oxadiazole-3-carboxamide] |
| 6.39 | Cc1nonc1C(=O)N[C@@H](COC(C)(C)C(F)(F)F)C(=O)Nc1cc(CN2C[C@@H](C(F)(F)F)NC2=O)ccn1 [Example 273, 4-methyl-N—((S)-1-oxo-1-((4-(((S)-2-oxo-4-(trifluoromethyl)-imidazolidin-1-yl)methyl)pyridin-2-yl)amino)-3-((1,1,1-trifluoro-2-methylpropan-2-yl)oxy)propan-2-yl)-1,2,5-oxadiazole-3-carboxamide] |
| 5.25 | Cn1nccc1C(=O)N[C@H](C(=O)Nc1cc(CNC(=O)CCC(F)(F)F)ccn1)C(C1CC1)C1CC1 [Example 32, (S)—N-(1,1-dicyclopropyl-3-oxo-3-((4-((4,4,4-trifluorobutanamido)-methyl)pyridin-2-yl)amino)propan-2-yl)-1-methyl-1H-pyrazole-5-carboxamide] |
| 7.89 | COCC(c1ccnc(NC(=O)[C@@H](NC(=O)c2ccnn2C(C)C)[C@H]2CC[C@H](C)CC2)c1)N1C[C@@H](C(F)(F)F)NC1=O (single isomer, unassigned) [Example 87] |
| 6.35 | Cc1nonc1C(=O)N[C@H](C(=O)Nc1cc(CN2C[C@@H](C(F)(F)F)NC2=O)ccn1)C(C1CC1)C1CC1 [Example 18, N-((S)-1,1-dicyclopropyl-3-oxo-3-((4-(((S)-2-oxo-4-(trifluoromethyl)imidazolidin-1-yl)methyl)pyridin-2-yl)amino)propan-2-yl)-4-methyl-1,2,5-oxadiazole-3-carboxamide] |
| 6.42 | COCC(c1ccnc(NC(=O)[C@@H](NC(=O)c2nccn2C)[C@H]2CC[C@H](C)CC2)c1)N1C[C@@H](C(F)(F)F)NC1=O (single isomer, unassigned) [Example 112] |
| 7.19 | [2H]C([2H])([2H])C([2H])([2H])n1nccc1C(=O)N[C@H](C(=O)Nc1cc([C@@H](COC)N2C[C@@H](C(F)(F)F)NC2=O)ccn1)C1CCC(F)(F)CC1 [Example 189, N-((S)-1-(4,4-difluorocyclohexyl)-2-((4-((S)-2-methoxy-1-((S)-2-oxo-4-(trifluoromethyl)imidazolidin-1-yl)ethyl)pyridin-2-yl)amino)-2-oxoethyl)-1-(ethyl-d5)-1H-pyrazole-5-carboxamide] |
| 6.69 | COCC(NC(=O)CCC(F)(F)F)c1ccnc(NC(=O)[C@@H](NC(=O)c2ccnn2CC2CC2)C2CCC(F)(F)CC2)c1 (single isomer, unassigned) [Example 142] |

| SMILES | pIC50 |
| --- | --- |
| C[C@@H](OC(C)(C)C)[C@H](NC(=O)OCc1ccccc1)C(=O)Nc1cc(CN2C[C@@H](C(F)(F)F)NC2=O)ccn1 [Example 101, benzyl ((2S,3R)-3-(tert-butoxy)-1-oxo-1-((4-(((S)-2-oxo-4-(trifluoromethyl)imidazolidin-1-yl)methyl)pyridin-2-yl)amino)butan-2-yl)carbamate] | 5.27 |
